Laboratory results as given in ChEMBL document CHEMBL6134922 (ACS Med Chem Lett, 2025).
Blank lines part the entries; values can stand above or below the molecule they belong to.

Assays:
[1] = Plasma protein binding in human assessed as unbound fraction at 5 uM incubated for 6 hrs by equilibrium dialysis based HPLC analysis; format: ADME, cell-free
[2] = Plasma protein binding in mouse assessed as unbound fraction at 5 uM incubated for 6 hrs by equilibrium dialysis based HPLC analysis; format: ADME, cell-free
[3] = Unbound fraction in rat brain at 5 uM incubated for 6 hrs by equilibrium dialysis based HPLC analysis; format: ADME, tissue-based
[4] = Cmax in CD-1 mouse at 10 mg/kg, ip measured up to 24 hrs by LC-MS/MS analysis; format: ADME, organism-based; settings: in vivo
[5] = Cmax in CD-1 mouse at 10 mg/kg, po measured up to 24 hrs by LC-MS/MS analysis; format: ADME, organism-based; settings: in vivo
[6] = AUC in CD-1 mouse at 10 mg/kg, ip measured up to 24 hrs by LC-MS/MS analysis; format: ADME, organism-based; settings: in vivo
[7] = AUC in CD-1 mouse at 10 mg/kg, po measured up to 24 hrs by LC-MS/MS analysis; format: ADME, organism-based; settings: in vivo
[8] = Unbound fraction in mouse brain at 5 uM incubated for 6 hrs by equilibrium dialysis based HPLC analysis; format: ADME, tissue-based
[9] = Plasma protein binding in mouse assessed as bound fraction at 5 uM incubated for 6 hrs by equilibrium dialysis based HPLC analysis
[10] = Plasma protein binding in human assessed as percent bound at 5 uM incubated for 6 hrs by equilibrium dialysis based HPLC analysis

SMILES: CC(C)(C)OC(=O)Nc1ccc(Cl)c(C(=O)Nc2ncc(C#Cc3ccccc3)cc2Cl)c1
fraction unbound at 6 h, 5 µM [2]: > 0.999

SMILES: Cc1cc(C#Cc2ccccc2)cnc1NC(=O)c1cc(NC(=O)OC(C)(C)C)ccc1Cl
plasma protein binding (% bound) [9]: 98.7%
plasma protein binding (% bound) [10]: 99.5%

SMILES: CC(C)(C)OC(=O)Nc1ccc(Cl)c(C(=O)Nc2ncc(C#Cc3ccccc3)cc2F)c1
plasma protein binding (% bound) [9]: 98.9%
plasma protein binding (% bound) [10]: 99.8%

Further lines, results first:

fraction unbound at 6 h, 5 µM [1]: > 0.999
fraction unbound at 6 h, 5 µM [2]: > 0.999
SMILES: Cc1cc(C#Cc2cccc(F)c2)cnc1NC(=O)c1cc(NC(=O)OC(C)(C)C)ccc1Cl

fraction unbound at 6 h, 5 µM [3]: > 0.999
Cmax [4]: 888 nM
Cmax [5]: 252 nM
AUC at 24 h [6]: 12.3 µM·h
AUC at 24 h [7]: 2.27 µM·h
fraction unbound at 6 h, 5 µM [8]: 0.994
SMILES: Cc1cc(C#Cc2ccc(F)cc2)cnc1NC(=O)c1cc(NC(=O)OC(C)(C)C)ccc1Cl
